Test results published in ChEMBL document CHEMBL1201862, “PubChem BioAssay data set” (2004).
Structures can show the parent of a compound that is named as a salt. Activity calls are given as the source filed them.

How the values were obtained:
[1] = target: Long-chain-fatty-acid--AMP ligase FadD28 (Mycobacterium tuberculosis, UniProt P9WQ59); test: Fluorescence polarization aasay to screen for inhibitors that compete for the binding of FadD28 to a bisubstrate Measured in Biochemical System Using Plate Reader - 2147-01_Inhibitor_Dose_CherryPick_Activity.; format: functional, Mycobacterium tuberculosis H37Rv
Chain of Long-chain-fatty-acid--AMP ligase FadD28 (P9WQ59 whole entry, the tested form may be a part): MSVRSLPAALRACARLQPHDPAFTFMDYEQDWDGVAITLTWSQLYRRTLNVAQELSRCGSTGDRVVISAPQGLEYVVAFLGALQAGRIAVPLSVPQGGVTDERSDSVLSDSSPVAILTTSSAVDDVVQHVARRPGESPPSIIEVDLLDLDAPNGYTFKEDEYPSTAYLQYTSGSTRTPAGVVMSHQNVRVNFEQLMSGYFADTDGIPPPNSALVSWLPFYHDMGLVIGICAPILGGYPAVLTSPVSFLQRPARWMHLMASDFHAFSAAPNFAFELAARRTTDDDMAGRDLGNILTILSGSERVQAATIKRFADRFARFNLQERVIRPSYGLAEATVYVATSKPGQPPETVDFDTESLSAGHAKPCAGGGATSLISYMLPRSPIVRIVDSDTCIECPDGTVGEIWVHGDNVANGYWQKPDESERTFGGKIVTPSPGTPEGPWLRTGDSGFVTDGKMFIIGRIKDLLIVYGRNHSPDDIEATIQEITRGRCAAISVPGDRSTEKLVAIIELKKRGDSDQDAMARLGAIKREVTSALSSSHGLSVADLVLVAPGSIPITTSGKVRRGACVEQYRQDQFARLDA

[2] = target: Photoreceptor-specific nuclear receptor (Homo sapiens, UniProt Q9Y5X4); format: functional, cell-based;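 note: CHO-S cells with Gal4-NCOR and VP16-NR2E3 two-hybrid luciferase reporter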
Chain of Photoreceptor-specific nuclear receptor (Q9Y5X4 whole entry, the tested form may be a part): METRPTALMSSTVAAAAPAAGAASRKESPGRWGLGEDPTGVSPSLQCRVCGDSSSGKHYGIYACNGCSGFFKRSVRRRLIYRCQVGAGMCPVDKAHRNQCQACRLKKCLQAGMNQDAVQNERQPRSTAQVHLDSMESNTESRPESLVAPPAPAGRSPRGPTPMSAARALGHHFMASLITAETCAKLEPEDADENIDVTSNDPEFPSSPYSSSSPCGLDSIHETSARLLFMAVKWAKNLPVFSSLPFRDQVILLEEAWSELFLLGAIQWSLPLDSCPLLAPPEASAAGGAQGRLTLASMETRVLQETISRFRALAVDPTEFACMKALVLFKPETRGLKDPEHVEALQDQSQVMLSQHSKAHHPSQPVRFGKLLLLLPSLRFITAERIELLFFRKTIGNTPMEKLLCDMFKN

[3] = target: T1, Probable nicotinate-nucleotide adenylyltransferase (Staphylococcus aureus (strain N315), UniProt P65502); format: functional, Staphylococcus aureus subsp. aureus N315;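 for IC50 Mean: confirmatory dose-response retesting of NadD inhibitor hits first found in an ultra-high-throughput screen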
T1 sequence (P65502 whole entry): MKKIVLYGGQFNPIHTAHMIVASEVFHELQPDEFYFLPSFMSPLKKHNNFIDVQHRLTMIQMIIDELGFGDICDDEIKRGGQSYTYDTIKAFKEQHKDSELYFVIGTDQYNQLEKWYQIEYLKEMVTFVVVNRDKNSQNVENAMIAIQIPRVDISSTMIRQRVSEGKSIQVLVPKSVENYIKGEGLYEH

[4] = target: T1, Probable nicotinate-nucleotide adenylyltransferase; format: functional, Staphylococcus aureus subsp. aureus N315; conditions: read-out: IC50_Mean
Cysteine protease ATG4B = target: T2, Cysteine protease ATG4B (Homo sapiens, UniProt Q9Y4P1); format: functional;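 note: Fluorescence-based dose-response confirmation assay measuring inhibition of ATG4B activity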
T2 sequence (Q9Y4P1 whole entry): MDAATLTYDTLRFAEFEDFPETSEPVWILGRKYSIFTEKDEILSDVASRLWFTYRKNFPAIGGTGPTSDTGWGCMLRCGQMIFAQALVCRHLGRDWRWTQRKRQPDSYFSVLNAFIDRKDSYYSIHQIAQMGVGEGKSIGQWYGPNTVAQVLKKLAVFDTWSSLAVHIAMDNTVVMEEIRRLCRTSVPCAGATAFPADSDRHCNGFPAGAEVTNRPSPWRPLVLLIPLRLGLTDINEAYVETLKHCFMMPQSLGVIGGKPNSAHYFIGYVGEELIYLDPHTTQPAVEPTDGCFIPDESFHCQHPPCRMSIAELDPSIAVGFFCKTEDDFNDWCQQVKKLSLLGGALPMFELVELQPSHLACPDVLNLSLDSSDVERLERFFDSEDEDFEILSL

Phospholipase A2 = Phospholipase A2 (Homo sapiens, UniProt P04054); format: functional;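 note: confirmatory dose-response counterscreen on phospholipase A2, testing hits that came from an ultra-high-throughput screen for ATG4B inhibitors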
Chain of Phospholipase A2 (P04054 whole entry): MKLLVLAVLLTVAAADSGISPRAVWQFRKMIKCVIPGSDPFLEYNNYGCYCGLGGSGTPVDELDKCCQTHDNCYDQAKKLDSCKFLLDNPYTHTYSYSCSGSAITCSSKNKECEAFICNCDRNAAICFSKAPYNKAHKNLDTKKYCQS

[5] = Counterscreen for antagonists of the human trace amine associated receptor 1 (hTAAR1): Fluorescence-based cell-based high throughput dose response assay to identify nonselective Ga16 antagonists.; format: functional
[6] = Counterscreen for […] of the human trace amine associated receptor 1 (TAAR1): Fluorescence-based cell-based high throughput dose response assay to identify nonselective Ga16 agonists.; format: functional
P388/ADR = test: cells; format: functional; conditions: Mus musculus
[7] = target: Heat shock protein HSP 90-alpha (Homo sapiens, UniProt P07900); format: functional, organism-based
P388 = test: cells; format: functional; conditions: Mus musculus
[8] = non-specific 3'UTR reporter inhibition in Clone20-Shn3RL – cell-based, Renilla luciferase, cherry-picked, counter-screen for Shn3 inhibitor project, dose response (AID 624133); format: functional
[9] = reduction of Shn3 3'UTR-driven luciferase in osteoblasts – cell-based, Clone20 osteoblasts, firefly luciferase, cherry-picked, dose response (AID 624132); format: functional;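 note: firefly luciferase luminescence from reporter carrying the Shn3 3'UTR in osteoblasts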
[10] = loss of viability in HepG2 cells – cell-based, CellTiter-Glo, cherry-picked, cytotoxicity control for Shn3 inhibitor project, dose response (AID 624134); format: functional
SN12K1 = test: cells; format: functional; conditions: Homo sapiens
[11] = target: Adenosylmethionine-8-amino-7-oxononanoate aminotransferase (Mycobacterium tuberculosis, UniProt P9WQ81); test: Mycobacterium tuberculosis BioA enzyme inhibitor Measured in Biochemical System Using Plate Reader - 2163-02_Inhibitor_Dose_CherryPick_Activity.; format: functional, Mycobacterium tuberculosis UT205
Chain of Adenosylmethionine-8-amino-7-oxononanoate aminotransferase (P9WQ81 whole entry): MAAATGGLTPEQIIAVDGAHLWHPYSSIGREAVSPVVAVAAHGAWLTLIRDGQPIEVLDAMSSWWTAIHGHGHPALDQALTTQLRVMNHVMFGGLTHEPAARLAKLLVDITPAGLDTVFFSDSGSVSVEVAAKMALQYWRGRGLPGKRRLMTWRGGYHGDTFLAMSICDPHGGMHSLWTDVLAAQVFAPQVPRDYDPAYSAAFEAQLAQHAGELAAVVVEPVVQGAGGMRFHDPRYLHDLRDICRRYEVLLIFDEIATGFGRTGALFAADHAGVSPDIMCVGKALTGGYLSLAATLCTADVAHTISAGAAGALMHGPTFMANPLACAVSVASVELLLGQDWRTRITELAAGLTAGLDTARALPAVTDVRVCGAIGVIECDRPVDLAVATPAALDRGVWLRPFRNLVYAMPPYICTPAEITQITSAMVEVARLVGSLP

[12] = target: T3, Beta-2 adrenergic receptor (Homo sapiens, UniProt P07550); test: ADRB2 activation measured by internalization – cell-based, FAP fluorogen, flow cytometry, cherry pick 1, dose response (AID 588763); format: functional
T3 sequence (P07550 whole entry): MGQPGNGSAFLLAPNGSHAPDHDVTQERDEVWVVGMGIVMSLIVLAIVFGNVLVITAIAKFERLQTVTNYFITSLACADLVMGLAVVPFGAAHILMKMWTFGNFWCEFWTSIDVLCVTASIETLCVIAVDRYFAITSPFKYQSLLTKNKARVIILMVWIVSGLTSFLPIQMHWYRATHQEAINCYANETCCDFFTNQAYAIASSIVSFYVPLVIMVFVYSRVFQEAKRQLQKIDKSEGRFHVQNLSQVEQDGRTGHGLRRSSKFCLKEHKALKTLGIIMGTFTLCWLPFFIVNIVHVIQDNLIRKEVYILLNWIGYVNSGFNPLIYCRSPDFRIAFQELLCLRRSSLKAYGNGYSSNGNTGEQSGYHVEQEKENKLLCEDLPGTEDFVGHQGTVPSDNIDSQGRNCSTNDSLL

[13] = target: T3, Beta-2 adrenergic receptor; test: Dose response for HTS for Beta-2AR agonists via FAP method from Powderset1.; format: functional
Steroidogenic factor 1 = Steroidogenic factor 1 (Homo sapiens, UniProt Q13285); test: Counterscreen for inverse agonists of the liver receptor homolog-1 (LRH-1; NR5A2): Luminescence-based cell-based high throughput dose response assay to identify inverse agonists of the Steroidogenic Factor 1 Nuclear Receptor (SF1; NR5A1).; format: functional
Chain of Steroidogenic factor 1 (Q13285 whole entry): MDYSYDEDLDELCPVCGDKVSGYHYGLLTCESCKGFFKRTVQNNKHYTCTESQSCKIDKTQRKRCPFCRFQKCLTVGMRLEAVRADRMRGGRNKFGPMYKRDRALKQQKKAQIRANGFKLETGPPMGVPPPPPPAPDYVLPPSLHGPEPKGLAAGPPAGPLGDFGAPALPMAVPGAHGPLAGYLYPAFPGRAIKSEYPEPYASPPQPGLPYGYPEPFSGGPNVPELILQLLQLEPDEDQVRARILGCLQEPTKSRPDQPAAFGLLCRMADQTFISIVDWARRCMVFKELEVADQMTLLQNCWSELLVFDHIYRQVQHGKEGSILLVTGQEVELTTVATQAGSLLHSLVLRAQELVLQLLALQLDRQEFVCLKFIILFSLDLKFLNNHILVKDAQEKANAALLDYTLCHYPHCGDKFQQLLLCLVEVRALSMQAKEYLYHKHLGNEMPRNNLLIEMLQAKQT

[14] = target: Nuclear receptor subfamily 5 group A member 2 (Homo sapiens, UniProt O00482); format: functional, cell-based;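 note: HEK293T cells transfected with LRH-1 and a StAR promoter luciferase reporter; potency for inhibitors that lower LRH-1 driven reporter light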
[15] = nonselective StAR promoter luciferase inhibitors – cell-based, luminescence, luciferase reporter, counter-screen for LRH-1 inverse agonist project, dose response (AID 651969); format: functional
SUMO-activating enzyme = SUMO-activating enzyme (Homo sapiens, UniProt Q9UBT2); test: blockers of UBC9-mediated SUMO conjugation – biochemical, AlphaScreen, SUMOylation inhibitor project, confirmation (AID 2018); format: functional
Chain of SUMO-activating enzyme (Q9UBE0 whole entry): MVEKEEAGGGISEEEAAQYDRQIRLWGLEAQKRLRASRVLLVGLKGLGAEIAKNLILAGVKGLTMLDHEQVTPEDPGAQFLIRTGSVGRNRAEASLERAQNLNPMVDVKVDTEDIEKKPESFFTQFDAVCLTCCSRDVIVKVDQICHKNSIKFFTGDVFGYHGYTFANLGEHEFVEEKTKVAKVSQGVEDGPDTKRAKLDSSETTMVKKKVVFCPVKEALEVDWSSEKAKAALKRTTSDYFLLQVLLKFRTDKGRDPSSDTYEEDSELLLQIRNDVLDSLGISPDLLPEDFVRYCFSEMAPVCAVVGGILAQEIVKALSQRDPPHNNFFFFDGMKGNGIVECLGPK
Chain of SUMO-activating enzyme (Q9UBT2 whole entry): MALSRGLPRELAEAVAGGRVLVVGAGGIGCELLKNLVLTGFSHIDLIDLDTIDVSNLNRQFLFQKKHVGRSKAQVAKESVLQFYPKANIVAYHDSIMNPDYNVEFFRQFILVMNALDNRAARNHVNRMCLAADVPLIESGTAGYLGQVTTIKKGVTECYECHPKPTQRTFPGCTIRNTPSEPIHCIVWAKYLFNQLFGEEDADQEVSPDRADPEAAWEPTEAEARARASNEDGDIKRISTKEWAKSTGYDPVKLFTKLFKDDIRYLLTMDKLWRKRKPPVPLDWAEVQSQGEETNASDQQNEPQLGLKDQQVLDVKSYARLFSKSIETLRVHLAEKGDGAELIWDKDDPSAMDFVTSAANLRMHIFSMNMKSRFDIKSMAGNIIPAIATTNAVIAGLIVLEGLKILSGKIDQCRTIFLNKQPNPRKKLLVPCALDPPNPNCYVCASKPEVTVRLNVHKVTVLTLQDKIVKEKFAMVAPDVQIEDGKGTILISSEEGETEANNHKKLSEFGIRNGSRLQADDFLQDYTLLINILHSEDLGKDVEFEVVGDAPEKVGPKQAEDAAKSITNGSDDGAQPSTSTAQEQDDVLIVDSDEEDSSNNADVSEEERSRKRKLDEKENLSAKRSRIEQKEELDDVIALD

[16] = target: 5-hydroxytryptamine receptor 2A (Mus musculus, UniProt P35363); format: functional, cell-based;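 note: CHO-K1 cells with tagged receptor and beta-arrestin; agonist potency measured as compound-induced activation of the receptor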
Chain of 5-hydroxytryptamine receptor 2A (P35363 whole entry): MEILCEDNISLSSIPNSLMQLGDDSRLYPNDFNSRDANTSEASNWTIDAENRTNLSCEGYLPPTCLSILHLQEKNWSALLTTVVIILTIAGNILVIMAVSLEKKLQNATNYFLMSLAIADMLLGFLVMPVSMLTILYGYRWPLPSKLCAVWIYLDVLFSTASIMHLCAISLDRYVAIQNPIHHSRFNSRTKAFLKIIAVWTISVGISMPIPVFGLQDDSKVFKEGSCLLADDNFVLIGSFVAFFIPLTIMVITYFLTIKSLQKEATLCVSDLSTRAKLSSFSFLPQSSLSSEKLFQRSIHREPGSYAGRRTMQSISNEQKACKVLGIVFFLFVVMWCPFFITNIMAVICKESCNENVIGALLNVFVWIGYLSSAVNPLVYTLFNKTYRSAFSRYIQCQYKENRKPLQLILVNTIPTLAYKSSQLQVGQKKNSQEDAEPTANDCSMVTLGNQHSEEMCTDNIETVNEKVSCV

Mu-type opioid receptor = Mu-type opioid receptor (Homo sapiens, UniProt P35372); format: functional, cell-based;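 note: U2OS cells with beta-arrestin recruitment to OPRM1 by beta-gal complementation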
Chain of Mu-type opioid receptor (P35372 whole entry): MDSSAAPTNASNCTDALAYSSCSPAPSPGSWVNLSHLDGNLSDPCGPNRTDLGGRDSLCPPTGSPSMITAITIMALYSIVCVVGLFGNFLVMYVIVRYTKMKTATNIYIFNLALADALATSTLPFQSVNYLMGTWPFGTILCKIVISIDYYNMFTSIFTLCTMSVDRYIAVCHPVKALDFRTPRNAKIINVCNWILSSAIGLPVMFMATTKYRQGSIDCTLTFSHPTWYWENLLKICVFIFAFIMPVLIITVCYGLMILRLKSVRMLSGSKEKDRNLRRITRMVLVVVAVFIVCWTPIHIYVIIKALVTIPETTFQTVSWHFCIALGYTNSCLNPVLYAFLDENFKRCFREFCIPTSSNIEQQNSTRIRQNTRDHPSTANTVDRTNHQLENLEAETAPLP

[17] = viability loss of HPDE-C7K cells – cell-based, fluorescence, HTS, primary screen (AID 431); format: functional; conditions: Homo sapiens
[18] = target: T4, Ubiquitin-conjugating enzyme E2 N (Homo sapiens, UniProt P61088); format: functional;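 note: Dose-response confirmation in a TR-FRET assay detecting UBC13-driven polyubiquitin chain formation, inhibition measured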
T4 sequence (P61088 whole entry): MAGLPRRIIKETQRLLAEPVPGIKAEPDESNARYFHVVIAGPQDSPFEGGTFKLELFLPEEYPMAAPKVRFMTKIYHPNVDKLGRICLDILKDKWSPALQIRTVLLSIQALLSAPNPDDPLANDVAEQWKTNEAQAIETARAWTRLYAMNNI

[19] = Luminescence Cell-Based Dose Retest to Confirm Inhibitors of Cancer Stem Cells. [Related pubchem assays (depositor defined):AID2717, AID2721]; format: functional; conditions: Homo sapiens

Cc1nc2ccccc2n1-c1ccccc1
AC50 [1]: 29.5 µM (active)

O=C(Nc1nnc(-c2cccs2)o1)c1cc(-c2ccccc2)nc2ccccc12
IC50 [2]: 3.67 µM (active)
IC50 [3]: 6.58 µM (active)
IC50 [4]: 27.6 µM (active)

O=C(Nc1ccccc1N1CCN(c2ccccc2)CC1)c1ccccc1
IC50 (Cysteine protease ATG4B): 9.27 µM (active)
IC50 (Phospholipase A2): 6.48 µM (active)

CCOCCOc1cccc(C(=O)NC(c2ccccc2)c2ccccc2)c1
IC50 [5]: 10 µM (inactive)
EC50 [6]: 10.3 µM (inactive)

CCCCCCCCOC(=O)c1cc([N+](=O)[O-])c(Sc2[nH]cnc3ncnc2-3)c([N+](=O)[O-])c1
GI50 (P388/ADR): 0.152 µM (active)
AC50 [7]: 2.18 µM (active)
GI50 (P388): 0.184 µM (active)
AC50 [8]: 10.6 µM (active)
AC50 [9]: 2.81 µM (active)
AC50 [10]: 11.5 µM (active)
GI50 (SN12K1): 0.912 µM (active)

CCC(Sc1nc2ccsc2c(=O)n1Cc1ccc(C(=O)O)cc1)C(=O)Nc1cccc(OC)c1 (centres undefined)
AC50 [11]: 4.08 µM (active)

COc1ccc(CN2CCC(Oc3ccc(C(=O)N4CCCC4)cc3)CC2)c(F)c1
EC50 [12]: 4.66 µM (active)
EC50 [13]: 5.42 µM (active)

O=C(COc1ccc2c3c(c(=O)oc2c1)CCCC3)NCCN1CCOCC1
IC50 (Steroidogenic factor 1): 17 µM (inactive)
IC50 [14]: 35.8 µM (inactive)
IC50 [15]: 35.8 µM (inactive)

CCCCCCCC(=O)O[C@H]1[C@H]2[C@@H](CC1(C)C)C(=O)[C@]13O[C@H]1C(=O)[C@]1(CO1)[C@]23C
GI50 (P388/ADR): 0.1 µM (active)
GI50 (P388): 0.0904 µM (active)
GI50 (SN12K1): 3.33 µM (inactive)

O=C(O)c1ccc(/C=N/NC(=O)c2ccc(CN3c4cccc5cccc(c45)S3(=O)=O)cc2)cc1
IC50 (SUMO-activating enzyme): 10.9 µM (active)
IC50 [3]: 5.94 µM (active)
IC50 [4]: 27.2 µM (active)

CCCN[C@H]1CCc2nc(N)sc2C1
EC50 [16]: 0.00651 µM (active)
EC50 (Mu-type opioid receptor): 92.5 µM (inactive)

CCCCc1oc2ccccc2c1C(=O)c1cc(I)c(OCCN(CC)CC)c(I)c1 [AMIODARONE HYDROCHLORIDE]
EC50 [17]: 7.82 µM (active)
GI50 (P388): 5.06 µM (inactive)
IC50 [18]: > 20 µM (inactive)
AC50 [19]: 4.87 µM (active)
GI50 (SN12K1): 3.77 µM (inactive)
